{
  "source": "the supplement of paper PMC10307832",
  "experiment_in_all_cases": "relative viability (nuclei count vs DMSO), 5 days (fraction); higher = more cells survive",
  "key": {"GSK-J4 + Trametinib": {"compound": "CCOC(=O)CCNc1cc(N2CCc3ccccc3CC2)nc(-c2ccccn2)n1 [GSK-J4] + CC(=O)Nc1cccc(-n2c(=O)n(C3CC3)c(=O)c3c(Nc4ccc(I)cc4F)n(C)c(=O)c(C)c32)c1 [Trametinib] (partner 0.02 µM)", "procedure,_shortened": "(§1)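 Cells from lung cancer lines were seeded into 1536-well plates and, one day later, dosed by pin tool. Treatments were either a single drug or a fixed dose of an anchor drug with five library-drug doses (not always all listed) in √10 steps. After 5 days, nuclei were stained in a one-step fixation (final 0.05% Triton X-100, 1% formaldehyde, 1 ug/ml Hoechst) and counted on 4× images, and relative viability is the treated-to-vehicle nuclei ratio, as the median of duplicate plates.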"}, "GSK-J4 + Pictilisib": {"compound": "CCOC(=O)CCNc1cc(N2CCc3ccccc3CC2)nc(-c2ccccn2)n1 [GSK-J4] + CS(=O)(=O)N1CCN(Cc2cc3nc(-c4cccc5[nH]ncc45)nc(N4CCOCC4)c3s2)CC1 [Pictilisib] (partner 1 µM)", "procedure,_shortened": "as §1"}, "AZ3146 + Trametinib": {"compound": "CN1CCC(CC1)OC2=CC(=C(C=C2)NC3=NC=C4C(=N3)N(C(=O)N4C)C5CCCC5)OC [AZ3146] + CC(=O)Nc1cccc(-n2c(=O)n(C3CC3)c(=O)c3c(Nc4ccc(I)cc4F)n(C)c(=O)c(C)c32)c1 [Trametinib] (partner 0.02 µM)", "procedure,_shortened": "as §1"}, "GSK-J4 + Lapatinib": {"compound": "CCOC(=O)CCNc1cc(N2CCc3ccccc3CC2)nc(-c2ccccn2)n1 [GSK-J4] + CS(=O)(=O)CCNCc1ccc(-c2ccc3ncnc(Nc4ccc(OCc5cccc(F)c5)c(Cl)c4)c3c2)o1 [Lapatinib] (partner 2 µM)", "procedure,_shortened": "as §1"}},
  "data": [
    {"cell line": "UMC-11", "values": [
      {"measurement": "relative viability", "setting": "GSK-J4 + Trametinib; first compound 0.5 µM", "result": 0.666},
      {"measurement": "relative viability", "setting": "GSK-J4 + Trametinib; first compound 1.581 µM", "result": 0.336},
      {"measurement": "relative viability", "setting": "GSK-J4 + Trametinib; first compound 5 µM", "result": 0.255},
      {"measurement": "relative viability", "setting": "GSK-J4 + Trametinib; first compound 15.81 µM", "result": 0.834},
      {"measurement": "relative viability", "setting": "GSK-J4 + Trametinib; first compound 50 µM", "result": 0.521},
      {"measurement": "relative viability", "setting": "GSK-J4 + Pictilisib; first compound 0.5 µM", "result": 0.739},
      {"measurement": "relative viability", "setting": "GSK-J4 + Pictilisib; first compound 1.581 µM", "result": 0.527},
      {"measurement": "relative viability", "setting": "GSK-J4 + Pictilisib; first compound 5 µM", "result": 0.499},
      {"measurement": "relative viability", "setting": "GSK-J4 + Pictilisib; first compound 15.81 µM", "result": 0.9},
      {"measurement": "relative viability", "setting": "GSK-J4 + Pictilisib; first compound 50 µM", "result": 0.256},
      {"measurement": "relative viability", "setting": "AZ3146 + Trametinib; first compound 0.08 µM", "result": 0.575},
      {"measurement": "relative viability", "setting": "AZ3146 + Trametinib; first compound 0.253 µM", "result": 0.725},
      {"measurement": "relative viability", "setting": "AZ3146 + Trametinib; first compound 0.8 µM", "result": 0.629},
      {"measurement": "relative viability", "setting": "AZ3146 + Trametinib; first compound 2.53 µM", "result": 0.626},
      {"measurement": "relative viability", "setting": "AZ3146 + Trametinib; first compound 8 µM", "result": 0.313},
      {"measurement": "relative viability", "setting": "GSK-J4 + Lapatinib; first compound 0.5 µM", "result": 1.07},
      {"measurement": "relative viability", "setting": "GSK-J4 + Lapatinib; first compound 1.581 µM", "result": 0.465},
      {"measurement": "relative viability", "setting": "GSK-J4 + Lapatinib; first compound 5 µM", "result": 0.611},
      {"measurement": "relative viability", "setting": "GSK-J4 + Lapatinib; first compound 15.81 µM", "result": 1.06},
      {"measurement": "relative viability", "setting": "GSK-J4 + Lapatinib; first compound 50 µM", "result": 0.808}
    ]}
  ]
}
